Key:
MMP-2 (gelatinase A) = target: T1, MMP-2 (gelatinase A) (Homo sapiens, UniProt P08253); assay: MMP-2 (gelatinase A) inhibitory activity, FITC-labeled type IV collagen degradation; assay type: biochemical; conditions: 50% inhibition of collagen type IV degradation; activated pro MMP-2 from transfected COS-1 cells; 42° C., 4 h
T1 construct: made in house; host or cells: COS-1 cells transfected with human pro-MMP-2 cDNA (secreted into culture medium)
T1 sequence (P08253 110-660): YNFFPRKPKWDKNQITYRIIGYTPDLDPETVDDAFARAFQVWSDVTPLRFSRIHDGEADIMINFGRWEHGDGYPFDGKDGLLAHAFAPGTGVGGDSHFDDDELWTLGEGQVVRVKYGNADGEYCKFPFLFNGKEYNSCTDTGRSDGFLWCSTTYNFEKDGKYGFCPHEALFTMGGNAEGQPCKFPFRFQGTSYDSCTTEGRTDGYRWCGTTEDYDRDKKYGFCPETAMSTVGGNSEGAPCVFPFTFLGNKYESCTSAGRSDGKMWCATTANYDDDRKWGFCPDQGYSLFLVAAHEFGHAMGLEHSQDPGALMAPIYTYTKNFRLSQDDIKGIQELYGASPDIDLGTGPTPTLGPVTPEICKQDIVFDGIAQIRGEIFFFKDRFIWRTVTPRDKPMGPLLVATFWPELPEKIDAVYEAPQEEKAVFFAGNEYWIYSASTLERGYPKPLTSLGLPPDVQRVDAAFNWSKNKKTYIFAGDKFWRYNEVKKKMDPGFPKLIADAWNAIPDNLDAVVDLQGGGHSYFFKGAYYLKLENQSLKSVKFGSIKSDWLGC
Procedure: (§1) Experiment 2: MMP-2 (gelatinase A) and MMP-9 (gelatinase B) inhibitory activities.
(§2) Pro MMP-2 was obtained from culture medium separated from human pro-MMP-2 cDNA tranfected COS-1 cells. It was activated by 1 mM (p-aminophenyl)mercury acetic acid, and MMP-9, derived human fibrosarcome,was purchased from Yagai Co. Ltd. Inhibition of both enzyme activities were estimated by enzyme assay using type IV collagenase activity assay kit (Yagai Co. Ltd., Biswaz, C. et al., J. Cell.Biochem., 28, 39 (1984)). MMP-2 or MMP-9 (0.01 U/ml), test compound (several concentrations), and FITC-labeled type IV collagen (derived bovine placenta, 25 μg) were incubated in 100 μl of 0.05M Tris - HCl buffer (pH 7.5) containing 200 mM NaCl and 5 mM CaCl2 at 42° C. for 4 h. Inhibitory activity of compound was evaluated by same as that of MMP-1 assay. Unchanged type IV collagen was precipitated by centrifugation, and the degradation percent of substrate was calculated by comparison with a fluorescence intensity of heat denatured substrate as 100%. Inhibition of enzyme activity was expressed as an IC50 value which was the concentration of test compound necessary to produce 50% inhibition of collagen type IV degradation by enzyme.

MMP-9 (gelatinase B) = target: T2, MMP-9 (gelatinase B) (Homo sapiens, UniProt P14780); assay: MMP-9 (gelatinase B) inhibitory activity, FITC-labeled type IV collagen degradation; assay type: biochemical; conditions: 50% inhibition of collagen type IV degradation; MMP-9 derived from human fibrosarcoma; 42° C., 4 h
T2 construct: purchased Yagai Co. Ltd; host or cells: human fibrosarcoma
T2 sequence (P14780 94-707): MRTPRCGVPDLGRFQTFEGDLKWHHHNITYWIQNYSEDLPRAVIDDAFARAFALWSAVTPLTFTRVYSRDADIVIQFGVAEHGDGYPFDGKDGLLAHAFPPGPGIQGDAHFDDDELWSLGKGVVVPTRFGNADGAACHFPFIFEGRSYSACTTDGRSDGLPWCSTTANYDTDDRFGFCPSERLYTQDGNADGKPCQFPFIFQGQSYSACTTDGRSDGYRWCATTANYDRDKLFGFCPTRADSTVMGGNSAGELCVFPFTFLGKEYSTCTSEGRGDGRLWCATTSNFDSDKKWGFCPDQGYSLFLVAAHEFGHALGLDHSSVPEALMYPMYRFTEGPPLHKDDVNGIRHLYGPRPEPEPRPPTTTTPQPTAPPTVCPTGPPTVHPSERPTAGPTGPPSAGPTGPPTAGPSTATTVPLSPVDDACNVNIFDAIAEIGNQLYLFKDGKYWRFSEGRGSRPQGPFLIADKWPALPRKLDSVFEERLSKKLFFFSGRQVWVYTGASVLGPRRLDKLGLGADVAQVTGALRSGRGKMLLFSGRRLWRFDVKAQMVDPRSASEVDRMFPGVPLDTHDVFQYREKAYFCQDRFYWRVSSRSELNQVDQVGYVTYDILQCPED
Procedure: as §1, §2

IC50 (MMP-2 (gelatinase A)) [nM]	IC50 (MMP-9 (gelatinase B)) [nM]	Structure (SMILES)
21	3	COc1ccc(OCCC[C@H](CC(=O)O)C(=O)N[C@@H](Cc2ccccc2)C(=O)NCCS(N)(=O)=O)cc1 [Compound 12, 2-[[N-(2R)-2-(1'-Carboxymethyl)-5-[(4-methoxyphenyl)oxy]pentanoyl]-L-phenylalanyl]amino-ethanesulfonamid]
> 10000	2800	CNC(=O)[C@H](Cc1ccccc1)NC(=O)[C@H](CCCc1ccc2cccccc1-2)CC(=O)O [Compound 5, N-[(2R)-2-(1'-Carboxymethyl)-5-(azulene-1-yl)pentanoyl]-L-phenylalanine N-Methylamide]

Continued, compound first:

Structure (SMILES)	IC50 (MMP-2 (gelatinase A)) [nM]	IC50 (MMP-9 (gelatinase B)) [nM]
CNC(=O)[C@H](Cc1ccccc1)NC(=O)[C@H](CCCOc1ccc(OC)cc1)CC(=O)OCc1oc(=O)oc1C [Compound 61]	1000	110
CCOc1ccc(C[C@H](NC(=O)[C@H](CCc2ccc3cccccc2-3)CC(=O)O)C(=O)NC)cc1 [Compound 6, (2S)-2-[(2R)-2-(1'-Carboxymethyl)-4-(azulene-1-yl)butyroyl]amino-3-(4-ethoxy)phenylpropanoyl methylamide]	1000	360
CNC(=O)[C@@H](NC(=O)[C@H](CCCOc1ccc(OC)cc1)CC(=O)NO)C(C)(C)C [Compound 54, N-[(2R)-2-(2'-Hydroxyamino-2'-oxo-ethyl)-5-[(4-methoxyphenyl)oxy]-pentanoyl]-L-tert-leucine N-Methylamide]	5.6	0.11
CNC(=O)[C@H](Cc1ccccc1)NC(=O)[C@H](CCc1ccc2cccccc1-2)CC(=O)O [Compound 2, N-[(2R)-2-(1'-Carboxymethyl)-4-(azulene-1-yl)butyroyl]-L-phenylalanine N-Methylamide]	390	1300
CNC(=O)[C@@H](NC(=O)[C@H](CCc1ccc2cccccc1-2)CC(=O)O)C(C)(C)C [Compound 4, N-[(2R)-2-(1'-Carboxymethyl)-4-(azulene-1-yl)butyroyl]-L-tert-leucine N-Methylamide]	1000	300
